This is an account of results in the NIST ThermoML archive (doi:10.1021/je200673a).

Numbers after ± are expanded uncertainties.

This data set in a line: Molar enthalpy of transition or fusion. Particulars: Crystal; Adiabatic calorimetry.

Take `C(#Cc1ccccc1)c1ccccc1` [1,2-diphenylethyne]: the “Molar enthalpy of transition or fusion” value was 5.029 ± 0.0454 kcal/mol.
